Measurements from patent publication US7029696B2, “Delivery and activation through liposome incorporation of diaminocyclohexane platinum(II) complexes” (priority 1996, dated 2006).
Entries after “also recorded” stand apart in the source; their conditions may differ.

Tests used:
[1] = Intraliposomal stability of Pt-complexes by HPLC; assay type: physicochemical; conditions: for intraliposomal stability (in words): DMPC:DMPG liposomes, saline or PBS; for percentage of intact Pt-complex: in liposomes, 6 h after liposome preparation; for NDDP stability (%): liposomal NDDP, lipids as dry powder
Protocol: Stability of the different Pt-complexes incorporated in liposomes was determined as described previously by comparing the HPLC profiles as a function of time. In brief, aliquoted samples of liposome suspension were diluted (7×) with methanol at 0, 2, 6, and 24 h after liposome preparation, and each sample was then monitored by HPLC using chromega-8 bond column (4.6 mm×25 cm, 8 μm: ES Industries, NJ) and 10% water-methanol as eluant. The flow rate was 1 ml/min, and the complexes were detected by UV at 224 nm wavelength.

[2] = Tracking of liposomal NDDP degradation by 195Pt NMR and HPLC; assay type: physicochemical
Protocol: To characterize the active intermediate(s) in the reaction cascade of L-NDDP reconstituted in saline (0.9% NaCl), tracking experiments using ^195Pt NMR spectra in combination with ^31P NMR were performed. Samples 1–3 were prepared using the lipids DMPC and DMPG purchased in chloroform solution, while samples 4–8 were prepared using lipids in dry powder. In samples 1–3, the chloroform was initially evaporated in a rotavapor. The lipid film was dissolved in t-butanol containing the NDDP in solution. An aliquot of this solution was kept at 40° C. for 6 h and then lyophilized and extracted with methanol (sample 3). The remaining was lyophilized immediately, thus resulting in a preliposomal powder, which was reconstituted with saline to produce the liposome suspension. The liposome suspension was kept at room temperature for 6 hours. The Pt compounds and lipids were then extracted with chloroform (sample 1) or the sample was lyophilized to eliminate the water and the powder dissolved in methanol (sample 2) (see FIG. 6). Samples 4, 5, and 6 were prepared by complete evaporation of solvents after keeping the samples at 40° C. for 6 h, and redissolving them in methanol. Samples 7 and 8 were prepared by lyophilization of water for 1–2 d and redissolution in methanol. All samples were prechecked by HPLC before tracking with NMR. Chemical shifts of the products are expressed in parts-per-million relative to Na2PtCl6 in ^195Pt and DMPC in ^31P NMR.

[3] = tested on: intraperitoneal L1210 mouse leukemia; assay: In vivo antitumor activity of liposomal Pt-complexes
Protocol: In vivo. The in vivo antitumor activity of liposomal Pt-complexes was assessed against intraperitoneal L1210 mouse leukemia. […] The results were expressed as the median survival of treated animals divided by the median survival of control animals ×100 (% T/C).

[4] = Liposome entrapment (entrapment efficiency, free drug crystals by optic microscopy); assay type: physicochemical; conditions: generated within the liposome membranes from NDDP
Text: NDDP and its two isomers, B10 and L10 were formulated in liposomes composed of combinations of various lipids including DMPC, DMPG, DOPC, DOPG, PA, PE, and PS. The liposomes were formed by reconstituting preliposomal powders containing the Pt-complex and the lipids with unbuffered 0.9% NaCl aqueous solution (saline) or phosphate-buffered saline (PBS). […] The median size of the multilamellar vesicles was 1–2 μm in all preparations. The median size of the small-size liposomes prepared by ultrasonication of multilamellar vesicles was 50–100 nm.

[5] = Solubility of DACH-Pt-Cl2; assay type: physicochemical
[6] = liposomal, DMPC:DMPG 7:3, lipids in chloroform, reconstituted in PBS, 25 mg/kg i.p. day 1
[7] = liposomal, DMPC:DMPG 7:3, lipids in chloroform, reconstituted in PBS, 50 mg/kg i.p. day 1
[8] = liposomal, DMPC:DMPG 7:3, lipids in chloroform, reconstituted in PBS, 100 mg/kg i.p. day 1
[9] = liposomal, DMPC:DMPG 7:3, lipids in chloroform, reconstituted in PBS, 150 mg/kg i.p. day 1
[10] = liposomal, DMPC:DMPG 7:3, lipids in chloroform, reconstituted in saline, 25 mg/kg i.p. day 1
[11] = liposomal, DMPC:DMPG 7:3, lipids in chloroform, reconstituted in saline, 50 mg/kg i.p. day 1
[12] = liposomal, DMPC:DMPG 7:3, lipids in chloroform, reconstituted in saline, 100 mg/kg i.p. day 1
[13] = liposomal, DMPC:DMPG 7:3, lipids in chloroform, reconstituted in saline, 150 mg/kg i.p. day 1
[14] = liposomal, lipids in chloroform, reconstituted in PBS
[15] = liposomal, lipids in chloroform, reconstituted in saline

## cis-bis-neodecanoato-trans-R,R-1,2-diaminocyclohexane platinum (II) [NDDP]
[1]; 24 h, DMPC:DMPG 7:3, NDDP:total lipid ratio 1:15 or 1:30
  original NDDP remaining: 25%
[1]; 24 hours, DMPC:DMPG 7:3, NDDP:total lipid ratio 1:5 or 1:10
  initial NDDP present: 85%
[1]
  intraliposomal stability (in words): rather unstable
[1]; reconstituted in PBS
  percentage of intact Pt-complex: 82.1%
[1]; reconstituted in saline
  percentage of intact Pt-complex: 43.7%
[1]; saline pH 3.0, 10 min after reconstitution
  NDDP stability (%): 43%
[1]; saline pH 3.0, 2 h after reconstitution
  NDDP stability (%): 15%
[1]; saline pH 3.0, 6 h after reconstitution
  NDDP stability (%): 7%
[1]; saline pH 5.0, 10 min after reconstitution
  NDDP stability (%): 80%
[1]; saline pH 5.0, 1 h after reconstitution
  NDDP stability (%): 72%
[1]; saline pH 5.0, 2 h after reconstitution
  NDDP stability (%): 67%
[1]; saline pH 5.0, 6 h after reconstitution
  NDDP stability (%): 38%
[1]; saline pH 7.0, 10 min after reconstitution
  NDDP stability (%): 100%
[1]; saline pH 7.0, 2 h after reconstitution
  NDDP stability (%): 95%
[1]; saline pH 7.0, 6 h after reconstitution
  NDDP stability (%): 92%
[1]; saline pH 5.0, calculated amount of activated species (35 mg/kg of 50 mg/kg)
  NDDP transformed into the active Pt-species: about 70%
[1]; saline pH 7.0, calculated amount of activated species (10 mg/kg of 100 mg/kg)
  NDDP transformed into the active Pt-species: 10%
[1]; ultrasonication of multilamellar vesicles, regardless of lipid composition
  effect of liposome size on intraliposomal stability: did not affect the intraliposomal stability
[2]; liposomes composed of only DMPC
  stability in the absence of DMPG: completely preserved stability
[2]; sample 7: dry-powder lipids, saline pH 6.5–7.0, 6 h at room temperature
  degradation of NDDP: < 5%
[2]; sample 8: dry-powder lipids, acidic saline pH 3.0–4.0, in 10 min, yielding DACH-Pt—Cl2
  degradation of NDDP: 60–95%
[3]; [6]
  % T/C: 114%
[3]; [7]
  % T/C: 171%
[3]; [8]
  % T/C: 200%
[3]; [9]
  % T/C: 150%
[3]; [10]
  % T/C: 157%
[3]; [11]
  % T/C: 211%
[3]; [12]
  % T/C: Toxic
[3]; [13]
  % T/C: Toxic
[3]; liposomal, dry lipids, reconstituted with saline of pH 3.0
  optimal dose: 25 mg/kg
[3]; liposomal, dry lipids, reconstituted with saline of pH 5.0
  optimal dose: 50 mg/kg
[3]; liposomal, dry lipids, reconstituted with saline of pH 7.0
  optimal dose: 100 mg/kg
[3]; liposomal, dry lipids, saline pH 3.0, 12.5 mg/kg, administered 6 h after reconstitution
  % T/C: 157%
[3]; liposomal, dry lipids, saline pH 3.0, 25 mg/kg
  % T/C at the optimal dose: 214%
[3]; liposomal, dry lipids, saline pH 3.0, 25 mg/kg, administered 10 min after reconstitution
  % T/C: 150%
[3]; liposomal, dry lipids, saline pH 3.0, 25 mg/kg, administered 2 h after reconstitution
  % T/C: 186%
[3]; liposomal, dry lipids, saline pH 3.0, 25 mg/kg, administered 6 h after reconstitution
  % T/C: 240%
[3]; liposomal, dry lipids, saline pH 3.0, 50 mg/kg, administered 6 h after reconstitution
  % T/C: Toxic
[3]; liposomal, dry lipids, saline pH 5.0, 12.5 mg/kg, administered 6 h after reconstitution
  % T/C: 186%
[3]; liposomal, dry lipids, saline pH 5.0, 25 mg/kg, administered 6 h after reconstitution
  % T/C: 200%
[3]; liposomal, dry lipids, saline pH 5.0, 50 mg/kg
  % T/C at the optimal dose: 271%
[3]; liposomal, dry lipids, saline pH 5.0, 50 mg/kg, administered 10 min after reconstitution
  % T/C: 133%
[3]; liposomal, dry lipids, saline pH 5.0, 50 mg/kg, administered 2 h after reconstitution
  % T/C: 216%
[3]; liposomal, dry lipids, saline pH 5.0, 50 mg/kg, administered 6 h after reconstitution
  % T/C: 270%
[3]; liposomal, dry lipids, saline pH 5.0, 100 mg/kg, administered 6 h after reconstitution
  % T/C: Toxic
[3]; liposomal, dry lipids, saline pH 7.0, 25 mg/kg, administered 6 h after reconstitution
  % T/C: 186%
[3]; liposomal, dry lipids, saline pH 7.0, 50 mg/kg, administered 6 h after reconstitution
  % T/C: 200%
[3]; liposomal, dry lipids, saline pH 7.0, 100 mg/kg
  % T/C at the optimal dose: 271%
[3]; liposomal, dry lipids, saline pH 7.0, 100 mg/kg, administered 10 min after reconstitution
  % T/C: 163%
[3]; liposomal, dry lipids, saline pH 7.0, 100 mg/kg, administered 2 h after reconstitution
  % T/C: 216%
[3]; liposomal, dry lipids, saline pH 7.0, 100 mg/kg, administered 6 h after reconstitution
  % T/C: 257%
[3]; [14]
  optimal dose: 100 mg/kg
[3]; [15]
  optimal dose: 50 mg/kg

## dichloro(1,2-diaminocyclohexane) platinum(II) [DACH-Pt—Cl2]
[4]
  time the drug remains liposome-bound without leaking out and crystallizing: at least 24 h
[5]; dimethylformamide (DMF)
  solubility in dimethylformamide: good solubility
[5]; most organic solvents
  solubility in most organic solvents: insoluble
[5]; water
  solubility in water: very low solubility; also recorded: lack of solubility

## CCCCCCC(C)(C)C(=O)[O][Pt][O]C(=O)C(C)(C)CCCCCC.N[C@@H]1CCCC[C@H]1N [B10]
[1]
  intraliposomal stability (in words): intermediate stability
[1]; reconstituted in PBS
  percentage of intact Pt-complex: 95.9%
[1]; reconstituted in saline
  percentage of intact Pt-complex: 85.0%
[3]; [6]
  % T/C: 114%
[3]; [7]
  % T/C: 114%
[3]; [8]
  % T/C: 142%
[3]; [9]
  % T/C: 163%
[3]; [10]
  % T/C: 114%
[3]; [11]
  % T/C: 128%
[3]; [12]
  % T/C: 228%
[3]; [13]
  % T/C: 163%
[3]; [14]
  antitumor activity (in words): no significant antitumor activity
[3]; [15]
  optimal dose: 100 mg

## CCCCCCCCCC(=O)[O][Pt][O]C(=O)CCCCCCCCC.N[C@@H]1CCCC[C@H]1N [L10]
[1]
  intraliposomal stability (in words): highly stable
[1]; reconstituted in PBS
  percentage of intact Pt-complex: 100%
[1]; reconstituted in saline
  percentage of intact Pt-complex: 93.1%
[3]; [6]
  % T/C: 114%
[3]; [7]
  % T/C: 100%
[3]; [8]
  % T/C: 100%
[3]; [9]
  % T/C: 100%
[3]; [10]
  % T/C: 100%
[3]; [11]
  % T/C: 157%
[3]; [12]
  % T/C: 178%
[3]; [13]
  % T/C: 123%
[3]; [14]
  antitumor activity (in words): no significant antitumor activity
[3]; [15]
  optimal dose: 100 mg

## N.N.[Cl][Pt][Cl] [Cisplatin, cis-dichlorodiamine-platinum(II), reference compound]
[3]; Table 2 comparator, 10 mg/kg i.p. day 1, printed in the Saline column
  % T/C: 142%
[3]; Table 3 comparator, 10 mg/kg, printed in the 6 h column
  % T/C: 150%
